Measurements from patent US8395037B2, “Pharmaceutical compositions for treating/preventing motor organ diseases” (Mitsubishi Corporation, priority 2005, dated 2013).

Key:
[1] = Lubricating effect: pendulum-type dynamic friction coefficient measurement; type: physicochemical; details: for Dynamic friction coefficient: room temperature, mean of three
Protocol: Lubricating effect of fullerene was examined using three different solutions. 20 ml each of the solutions of (A) osteoarthritis patient-derived synovial fluid, (B) 50% polyethylene glycol solution, and (C) joint function-improving agent (hyaluronic acid formulation) were prepared, and dispensed into two tubes at 10 ml each. One 10 ml solution was mixed with fullerene (C60) to adjust the final concentration to 1.0 μM. The other 10 ml solution was used as a control solution. The dynamic friction coefficients of the respective solutions at room temperature were measured three times by a pendulum-type dynamic friction coefficient measuring apparatus (Japan Lubricating Oil Society), and the mean values were calculated. The dynamic friction coefficients were compared between the fullerene solutions and the control solutions.

[2] = system: osteoarthritis model animals (rabbits); assay: Osteoarthritis rabbit model, intraarticular water-solubilized fullerene 0.1 to 40.0 μM, safranin O cartilage degeneration; type: in vivo; details: for Efficacy on cartilage degeneration (rabbits responding): eight-week administration
Protocol: Various concentrations (0.1, 1.0, 10.0, or 40.0 μM) of water-solubilized fullerene (cyclodextrin clathrate C60) was injected into the right knee joints of osteoarthritis model animals (rabbits), and solvent alone was injected into the left knee joints as controls intraarticularly once a week. On the fourth or eighth week after the start of administration, the knees were dissected and stained with safranin O, to compare the degree of cartilage degeneration of medial and lateral tibia.
As described above, the therapeutic effect of the four-week or eight-week repetitive administration with water-solubilized fullerene was confirmed. Therefore, the therapeutic effect of a single administration of water-solubilized fullerene was also examined. Immediately after the preparation of an osteoarthritis rabbit model, a single dose of water-solubilized fullerene was administered. On the eighth week, articular cartilage tissue samples were prepared, and the therapeutic effect was examined.

[3] = General condition, organ histology and blood biochemical examination during eight-week administration; type: in vivo, rabbit
Protocol: In particular, in the eight-week administration, the inhibitory effect of water-solubilized fullerene on cartilage degeneration was more remarkable in the 1.0 μM and 10.0 μM administered groups rather than the 0.1 μM administered group. […] During the eight-week test period, decrease in body weight, insufficient feeding, hematuria, or abnormal hair coat was not observed in the experimental animals.
(§1) Sequential biochemical examinations of blood and synovial fluid were also performed (pre-administration and fourth- and eighth-week post-administration of water-solubilized fullerene). The observed biochemical examination items were (A) hepatic function (GOT and GPT), renal function (urea nitrogen and creatinine), and electrolytes (Na, K, and Cl), (B) extracellular matrix-degrading enzyme production ability (MMP-1, 3, and 13), and (C) cartilage matrix-synthesizing ability (proteoglycan). The items of (A) were measured by commercially available testing equipments and items of (B) and (C) were measured by ELISA method.

MMP-3 = MMP-3 concentration in synovial fluid of osteoarthritis model knee joints (ELISA); type: in vivo, rabbit; details: various concentrations, sequential measurement, versus control knees
Protocol: as §1

proteoglycan = assay: Proteoglycan concentration in synovial fluid of osteoarthritis model knee joints (ELISA); type: in vivo, rabbit; details: sequential measurement
Protocol: as §1

[4] = system: osteoarthritis model (rabbit); assay: Comparative test of water-solubilized fullerene and hyaluronic acid formulation in osteoarthritis model; type: in vivo; details: 1.0 μM, 2.0 ml/rabbit, eighth week; compared with hyaluronic acid formulation
Protocol: The medicinal effect of water-solubilized fullerene (cyclodextrin clathrate C60) was examined comparatively with a known articular function-improving agent (the hyaluronic acid formulation Suvenyl (registered trademark)). Specifically, the effects at the eighth week after the start of treatment on rabbits in the following five groups (A) to (E) were examined. Each group consisted of four rabbits and the administration dosage was 2.0 ml/rabbit in all groups.
Test groups: (A) Sham-operation, group administered with Suvenyl; (B) Sham-operation, group administered with 50% polyethylene glycol; (C) Osteoarthritis model, group administered with 1.0 μM water-solubilized fullerene; (D) Osteoarthritis model, group administered with 50% Suvenyl; (E) Osteoarthritis model, group administered with 1.0 μM water-solubilized fullerene and Suvenyl.

[5] = 1 μM in 50% polyethylene glycol
[6] = 1 μM in hyaluronic acid formulation
[7] = 1 μM in osteoarthritis patient-derived synovial fluid

Row | Molecule | Friction coefficient decreasing rate to control solution [1, 5] [%] | Dynamic friction coefficient [1, 5] | Friction coefficient decreasing rate to control solution [1, 6] [%] | Dynamic friction coefficient [1, 6] | Friction coefficient decreasing rate to control solution [1, 7] [%] | Dynamic friction coefficient [1, 7] | Cartilage degeneration inhibitory effect across doses ([2]; 0.1 μM to 40 μM, four-week administration) | Efficacy on cartilage degeneration (rabbits responding) ([2]; 0.1 μM) | Efficacy on cartilage degeneration (rabbits responding) ([2]; 1.0 μM) | Efficacy on cartilage degeneration (rabbits responding) ([2]; 10.0 μM) | Efficacy on cartilage degeneration (rabbits responding) ([2]; 40.0 μM) | Inhibitory effect on articular cartilage degeneration ([2]; 0.1, 1.0, 10.0 or 40.0 μM intraarticular once a week, four-week and eight-week administration) | Inhibitory effect on cartilage degeneration after single administration ([2]; single dose immediately after model preparation, eighth week, versus control knees) | Decrease in body weight, insufficient feeding, hematuria, abnormal hair coat ([3]; eight-week test period) | Optical microscopic observation of organs other than the joints (brain, lung, liver, kidney, adrenal, testis) ([3]; eight-week test period) | Hepatic function, renal function, electrolyte balance ([3]; pre-administration, fourth and eighth week post-administration) | MMP-3 concentration in synovial fluid (MMP-3) | Proteoglycan concentration in synovial fluid (proteoglycan) | Inhibitory effect on the production of cartilage matrix-degrading enzymes (MMPs) [4] | Producing/maintaining effect of proteoglycan [4]
1 | c12c3c4c5c1c1c6c7c2c2c8c3c3c9c4c4c%10c5c5c1c1c6c6c%11c7c2c2c7c8c3c3c8c9c4c4c9c%10c5c5c1c1c6c6c%11c2c2c7c3c3c8c4c4c9c5c1c1c6c2c3c41 [C60, fullerene (C60)] | 25 | 0.104 | 42 | 0.116 | 37 | 0.111 | – | – | – | – | – | – | – | – | – | – | – | – | – | –
2 | cyclodextrin clathrate C60 [water-solubilized fullerene] | – | – | – | – | – | – | almost equivalent | a mild efficacy in all four rabbits | a moderate efficacy in two rabbits and a remarkable efficacy in one rabbit out of a total of four | a remarkable efficacy in three rabbits out of a total of four | a mild efficacy in one rabbit and moderate efficacy in another rabbit out of a total of three | confirmed at the respective concentrations | no clear inhibitory effect on cartilage degeneration was observed | not observed | no findings showing degeneration in the respective tissues | not significantly changed | not clear | not clear | more remarkable effects than the hyaluronic acid formulation | more remarkable effects than the hyaluronic acid formulation
